Toxic doses and inconclusive results are not listed.

The test concerns BDF1 mice, B16 melanoma ip, median survival T/C. Briefly: NCI In Vivo Anticancer Drug Screen. Data for tumor model B16 Melanoma (intraperitoneal) in B6D2F1 (BDF1) mice. The conditions noted are these: endpoint: median survival time, higher = longer survival. The essentials: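 Each result divides a survival or tumor-size measurement in the compound-treated group by the same measurement in the vehicle group.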

The mark [1] stands for this setting: dose: 6.25 mg/kg/injection, schedule: Q01DX009 (ip), vehicle: saline with Tween-80.
The mark [2] stands for this setting: dose: 25.0 mg/kg/injection, schedule: Q01DX009 (ip), vehicle: saline with Tween-80.
[3] abbreviates: dose: 100.0 mg/kg/injection, schedule: Q01DX009 (ip), vehicle: saline with Tween-80.
Where [4] appears, read: dose: 200.0 mg/kg/injection, schedule: Q01DX009 (ip), vehicle: saline with Tween-80.
Setting [5] is: dose: 100.0 mg/kg/injection, schedule: Q04DX003 (ip), vehicle: Klucel (hydroxypropylcellulose) (HPC).
The mark [6] stands for this setting: dose: 200.0 mg/kg/injection, schedule: Q04DX003 (ip), vehicle: Klucel (hydroxypropylcellulose) (HPC).
Where [7] appears, read: dose: 400.0 mg/kg/injection, schedule: Q04DX003 (ip), vehicle: Klucel (hydroxypropylcellulose) (HPC).
Where [8] appears, read: dose: 25.0 mg/kg/injection, schedule: Q01DX009 (ip), vehicle: Klucel (hydroxypropylcellulose) (HPC).
Setting [9] is: dose: 50.0 mg/kg/injection, schedule: Q01DX009 (ip), vehicle: Klucel (hydroxypropylcellulose) (HPC).
The mark [10] stands for this setting: dose: 100.0 mg/kg/injection, schedule: Q01DX009 (ip), vehicle: Klucel (hydroxypropylcellulose) (HPC).
Where [11] appears, read: dose: 12.5 mg/kg/injection, schedule: Q01DX009 (ip), vehicle: saline with Tween-80.
The mark [12] stands for this setting: dose: 100.0 mg/kg/injection, schedule: Q04DX003 (ip), vehicle: saline with Tween-80.
Setting [13] is: dose: 200.0 mg/kg/injection, schedule: Q04DX003 (ip), vehicle: saline with Tween-80.

As for `CC(CNCCN)C[Si](C)(C)C` (centres undefined), the T/C by setting is: (dose: 12.5 mg/kg/injection, schedule: Q01DX009 (ip), vehicle: suspension in saline) 99 % of control; (dose: 25.0 mg/kg/injection, schedule: Q01DX009 (ip), vehicle: suspension in saline) 96 % of control.
As to `[Cl][Pt+2][Cl].[NH-]C1CCC1.[NH-]C1CCC1`, the T/C is 108 % of control (dose: 0.5 mg/kg/injection, schedule: Q01DX009 (ip), vehicle: saline with Tween-80); 117 % of control (dose: 1.0 mg/kg/injection, schedule: Q01DX009 (ip), vehicle: saline with Tween-80); 115 % of control (dose: 2.0 mg/kg/injection, schedule: Q01DX009 (ip), vehicle: saline with Tween-80); 112 % of control (dose: 5.0 mg/kg/injection, schedule: Q01DX009 (ip), vehicle: Klucel (hydroxypropylcellulose) (HPC)).
Turning to `ClC1(Cl)C2C=CC=CCC21` (centres undefined), the T/C runs as follows: (dose: 50.0 mg/kg/injection, schedule: Q04DX003 (ip), vehicle: other) 107 % of control; (dose: 100.0 mg/kg/injection, schedule: Q04DX003 (ip), vehicle: other) 102 % of control; (dose: 200.0 mg/kg/injection, schedule: Q04DX003 (ip), vehicle: other) 86 % of control.
Regarding `CN(/N=N/c1nc[nH]c1C(N)=O)C1CCCCC1`, the T/C (dose: 50.0 mg/kg/injection, schedule: Q01DX009 (ip), vehicle: carboxymethylcellulose (CMC)) was 123 % of control.
Consider `CC(=O)NC(Cc1ccc(N(CCCl)CCCl)cc1)C(=O)O` (centres undefined), for which the T/C was 109 % of control (dose: 3.13 mg/kg/injection, schedule: Q01DX009 (ip), vehicle: saline with Tween-80); 117 % of control under setting [1]; 113 % of control under setting [2].
For the molecule `CC(=O)NC(CO)C(=O)c1ccc(S(=O)(=O)c2ccccc2)cc1` (centres undefined), the T/C under setting [3] is 102 % of control and the T/C under setting [4] was 93 % of control.
With `COc1cccc(CN(C)CCC(=O)O)c1`, the T/C is, setting by setting: under setting [5], 104 % of control; under setting [6], 102 % of control; under setting [7], 101 % of control.
`CCCCCCCCCCCCCCCC(=O)NNC(C)C`: the T/C by setting is: under setting [8], 96 % of control; under setting [9], 90 % of control; under setting [10], 86 % of control.
With `C[C@H]1[C@H](O)[C@H]2[C@@H](CCC3=CC(=O)CC[C@@]32C)[C@@H]2CC[C@H](O)[C@@]12C`, the T/C under setting [3] was 94 % of control and the T/C under setting [4] is 100 % of control.
On to `CC(C)c1cccc(C(C)C)c1OC(=O)Nc1ccccc1Cl`, for which the T/C by setting is: under setting [5], 100 % of control; under setting [6], 96 % of control.
As for `O=C(CC(=O)C(F)(F)F)c1csc2ccccc12`, the T/C reads like this: under setting [11], 102 % of control; under setting [2], 97 % of control; (dose: 50.0 mg/kg/injection, schedule: Q01DX009 (ip), vehicle: saline with Tween-80) 114 % of control.
Turning to `CCC(=O)c1ccc(NC(C)=O)cc1`, the T/C under setting [5] is 102 % of control, the T/C under setting [6] was 96 % of control and the T/C under setting [7] was 98 % of control.
With `CC1=C2CC(C)(C)/C=C\C(=O)/C(C)=C\C3=C[C@H](C)C[C@]3(O2)C1=O`, the T/C reads like this: (dose: 1.5 mg/kg/injection, schedule: Q01DX009 (ip), vehicle: saline) 93 % of control; (dose: 3.0 mg/kg/injection, schedule: Q01DX009 (ip), vehicle: saline) 100 % of control; (dose: 6.0 mg/kg/injection, schedule: Q01DX009 (ip), vehicle: saline) 100 % of control; (dose: 12.0 mg/kg/injection, schedule: Q01DX009 (ip), vehicle: saline) 106 % of control; (dose: 16.0 mg/kg/injection, schedule: Q01DX009 (ip), vehicle: saline with Tween-80) 97 % of control; (dose: 32.0 mg/kg/injection, schedule: Q01DX009 (ip), vehicle: saline with Tween-80) 92 % of control.
Consider `CCC1=C(c2cc(Cl)c3ccccc3c2OCC(=O)O)OC(CC)(C(=O)c2cc(Cl)c3ccccc3c2OCC(=O)O)CC1` (centres undefined), for which the T/C was 102 % of control under setting [8]; 90 % of control (dose: 30.0 mg/kg/injection, schedule: Q01DX009 (ip), vehicle: saline with Tween-80); 102 % of control under setting [9]; 93 % of control (dose: 60.0 mg/kg/injection, schedule: Q01DX009 (ip), vehicle: saline with Tween-80); 102 % of control under setting [10]; 110 % of control under setting [12]. In addition, the T/C is, setting by setting: (dose: 120.0 mg/kg/injection, schedule: Q01DX009 (ip), vehicle: saline with Tween-80) 93 % of control; under setting [13], 95 % of control; (dose: 240.0 mg/kg/injection, schedule: Q01DX009 (ip), vehicle: saline with Tween-80) 86 % of control.
As to `CCCCC(CC)COP(OCC(CC)CCCC)OCC(CC)CCCC` (centres undefined), the T/C is 93 % of control under setting [12] and 86 % of control under setting [13].
`C1CC[N-]CC1.CC(=N\O)/C(C)=N/O.CC(=N\O)/C(C)=N/O.[CH2-]C.[Co+2]`: the T/C runs as follows: under setting [8], 111 % of control; under setting [9], 102 % of control.
Consider `COC(=O)C1=CCCN(C)C1`, for which the T/C is, setting by setting: (dose: 3.12 mg/kg/injection, schedule: Q01DX009 (ip), vehicle: saline) 100 % of control; (dose: 6.25 mg/kg/injection, schedule: Q01DX009 (ip), vehicle: saline) 115 % of control; (dose: 12.5 mg/kg/injection, schedule: Q01DX009 (ip), vehicle: saline) 100 % of control; (dose: 25.0 mg/kg/injection, schedule: Q01DX009 (ip), vehicle: saline) 92 % of control; (dose: 50.0 mg/kg/injection, schedule: Q01DX009 (ip), vehicle: saline) 115 % of control.
Regarding `O=C(O)/C(=C/c1ccc(O)cc1)c1ccccc1`, the T/C was 110 % of control under setting [3]; 100 % of control under setting [4]; 92 % of control (dose: 400.0 mg/kg/injection, schedule: Q01DX009 (ip), vehicle: saline with Tween-80).
Regarding `O=C1c2ccccc2C(=O)c2c(NCCCCCO)ccc(NCCCCCO)c21`, the T/C is, setting by setting: (dose: 8.0 mg/kg/injection, schedule: Q01DX009 (ip), vehicle: Klucel (hydroxypropylcellulose) (HPC)) 99 % of control; (dose: 16.0 mg/kg/injection, schedule: Q01DX009 (ip), vehicle: Klucel (hydroxypropylcellulose) (HPC)) 95 % of control; (dose: 32.0 mg/kg/injection, schedule: Q01DX009 (ip), vehicle: Klucel (hydroxypropylcellulose) (HPC)) 91 % of control.
Take `CCN(CC)P(=O)(N1CC1C)N1CC1C` (centres undefined): the T/C (dose: 9.3 mg/kg/injection, schedule: Q01DX009 (ip), vehicle: saline) is 123 % of control; the T/C (dose: 18.7 mg/kg/injection, schedule: Q01DX009 (ip), vehicle: saline) was 112 % of control; the T/C (dose: 37.5 mg/kg/injection, schedule: Q01DX009 (ip), vehicle: saline) is 99 % of control.
Turning to `COc1ccc2c(c1OC(C)=O)-c1cc(O)cc3c1C(C2)N(C(=O)CN(CCCl)CCCl)CC3` (centres undefined), the T/C reads like this: (dose: 3.12 mg/kg/injection, schedule: Q01DX009 (ip), vehicle: saline with Tween-80) 168 % of control; under setting [1], 187 % of control; (dose: 6.25 mg/kg/injection, schedule: Q04DX003 (ip), vehicle: DMSO) 103 % of control; under setting [11], 197 % of control; (dose: 12.5 mg/kg/injection, schedule: Q04DX003 (ip), vehicle: DMSO) 121 % of control; (dose: 25.0 mg/kg/injection, schedule: Q04DX003 (ip), vehicle: DMSO) 110 % of control. Also, the T/C (dose: 100.0 mg/kg/injection, schedule: Q04DX003 (ip), vehicle: DMSO) is 112 % of control.
With `O=CNC(CSC(=O)c1ccccc1)C(=O)O` (centres undefined), the T/C reads like this: under setting [9], 100 % of control; under setting [10], 100 % of control; (dose: 200.0 mg/kg/injection, schedule: Q01DX009 (ip), vehicle: Klucel (hydroxypropylcellulose) (HPC)) 94 % of control.

For the origin of these results see PubChem BioAssay AID192 (DTP/NCI, 2004).
